Experimental findings from patent US11198692B2, “Dihydro-pyrrolo-pyridine derivatives” (Pfizer Inc., priority 2017, dated 2021) are described below.

Bounds are passed on as bounds.

The target of the test is T1, Human M4 receptors (Homo sapiens, UniProt P08173).
T1 construct: expressed in transfected cells
T1 sequence (P08173 1-479): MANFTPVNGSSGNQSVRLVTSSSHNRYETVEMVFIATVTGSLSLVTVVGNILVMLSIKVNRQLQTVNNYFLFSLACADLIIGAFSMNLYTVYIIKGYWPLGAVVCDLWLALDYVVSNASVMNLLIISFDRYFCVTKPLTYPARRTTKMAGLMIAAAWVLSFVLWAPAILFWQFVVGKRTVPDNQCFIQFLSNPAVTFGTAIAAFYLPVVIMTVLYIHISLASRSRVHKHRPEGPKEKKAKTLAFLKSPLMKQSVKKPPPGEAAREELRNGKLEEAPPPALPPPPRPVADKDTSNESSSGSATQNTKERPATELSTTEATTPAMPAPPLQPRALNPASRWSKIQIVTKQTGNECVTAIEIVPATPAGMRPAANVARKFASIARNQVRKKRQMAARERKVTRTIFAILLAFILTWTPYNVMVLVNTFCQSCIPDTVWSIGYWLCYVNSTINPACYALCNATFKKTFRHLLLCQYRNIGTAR
Description: M4 PAM cAMP assay (GloSensor). The test is classed as cell-based. Conditions: HEK293 GloSensor cells expressing hM4, with EC20 acetylcholine and isoproterenol, geometric mean of 2-4 determinations unless footnoted (b: >=5, c: single); for Emax / EC50 Mean Asymptote Maximum (%): Emax = maximum asymptote of fitted dose response curve; for Emax: read-out: EC50 Mean Asymptote Maximum (%). The method, then:
The M4 cAMP assay was designed to determine the potency and efficacy of muscarinic positive allosteric modulators (PAMs). Human M4 receptors were stably expressed in Human embryonic kidney (HEK293) cells expressed with the Promega GloSensor™ cAMP technology.
HEK293 GloSensor cells expressing hM4 cells were cultured in growth media containing DMEM with 10% FBS, 1% Penicillin/Streptomycin, 500 μg/mL G418, 200 μg/mL Hygomycin B, and 1% Glutamax. When cells had grown to 80%-90% confluency, cells were harvested and seeded at a density of 25,000 cells/40 μL well, in a 384 white walled plates (Becton Dickinson 356661). Plates were incubated at 37 degrees C. and 5% CO2 for use after 24 hours.
Compound Preparation for Activator Screen:
Test compounds were initially prepared as 100% DMSO stock solutions, then transferred and serially diluted in 384-well compound plates (Matrix #4325). Each compound was tested at 10 concentrations in duplicate per experiment. Compound plates are spotted with 0.2 μL/well activator at 400 times the final assay concentration. Positive and negative controls for the compound alone activator response was 10 μM acetylcholine (Sigma # A2661) and DMSO, respectively. EC20 of acetylcholine was also used to define PAM activities.
Promega GloSensor™reagent (Promega # E1291) had previously been aliquotted. For each experiment, a stock solution of GloSensor™ was thawed out and equilibration medium was prepared with 88% CO2-independent media (Invitrogen #18045088), 10% fetal bovine serum and 2% GloSensor™ cAMP Reagent stock solution. Stock solution was mixed. Culture media in cell plates was discarded, then replaced with 40 μL/well pre-warmed equilibration media, then incubated in the dark at room temperature for 2 hours. During the incubation, stimulation media containing agonist and EC20 acetylcholine was prepared. CO2-independent media containing 50 […] Isoproterenol representing an EC80 of b-adrenergic receptor activity (Sigma #16504, 400 times final concentration) and EC20 acetylcholine in 1.25% DMSO was added to all columns of the compound plate, with the exception of column 12 to allow for EC0 control. […] Compounds are now 5 times the final assay concentration. The plate was mixed using a plate agitator. At the end of the 2 hour GloSensor™ incubation, add 10 μL of the CO2-independent media containing agonist, EC20 acetylcholine and isoproterenol to the cell plate. Cell plate was then incubated for 10 minutes at room temperature, and then read using an EnVision plate reader (Perkin Elmer).
Data was exported from the EnVision plate reader. The percent effect for each well was determined using the mean values for the positive and negative controls on each plate for each read, specifically 100*(compound−negative control)/(positive control−negative control). Dose response curves were fitted to the compound percent effect data using a 4-parameter logistic fit model. Data was reported as EC50 and Emax, with the Emax as the maximum asymptote of the fitted dose response curve.

For the compound `Cc1nc(CN(C)C)c2c(c1C)CN(C(=O)CC1CN(c3cccnc3)C1)C2` [Example 14, 1-{4-[(dimethylamino)methyl]-6,7-dimethyl-1,3-dihydro-2H-pyrrolo[3,4-c]pyridin-2-yl}-2-[1-(pyridin-3-yl)azetidin-3-yl]ethanone], the Emax was 99.4% and the EC50 (in general, the concentration needed to bring the measured effect to its halfway point) was 18.5 nM.
The corresponding values for `CNc1nc(C)c(C)c2c1CN(C(=O)CCc1ccc(OC)cc1)C2` [Example 32, 1-[6,7-dimethyl-4-(methylamino)-1,3-dihydro-2H-pyrrolo[3,4-c]pyridin-2-yl]-3-(4-methoxyphenyl)propan-1-one] are 119% and 24.7 nM.
The like results for `CNc1nc(C)c(C)c2c1CN(C(=O)CC1CN(c3nncs3)C1)C2` [Example 37, 1-[6,7-dimethyl-4-(methylamino)-1,3-dihydro-2H-pyrrolo[3,4-c]pyridin-2-yl]-2-[1-(1,3,4-thiadiazol-2-yl)azetidin-3-yl]ethanone] were, in that order, 93.5% and 3.47 nM.
For `CNc1nc(C)c(C)c2c1CN(C(=O)C[C@@H]1C[C@H]1c1cccnc1)C2` (single isomer, unassigned) [Example 11, 1-[6,7-Dimethyl-4-(methylamino)-1,3-dihydro-2H-pyrrolo[3,4-c]pyridin-2-yl]-2-[trans-2-(pyridin-3-yl)cyclopropyl]ethanone], the “EC50 Mean Asymptote Maximum (%)” value is 94.8^b % and the midpoint of the response, the EC50, lay at 1.6 nM.
Regarding `Cc1nc(NCC2CC2)c2c(c1C)CN(C(=O)CC1CN(c3ccncn3)C1)C2` [Example 22, 1-{4-[(cyclopropylmethyl)amino]-6,7-dimethyl-1,3-dihydro-2H-pyrrolo[3,4-c]pyridin-2-yl}-2-[1-(pyrimidin-4-yl)azetidin-3-yl]ethanone], the Emax amounted to 99.7% and the midpoint of the response, the EC50, lay at 0.626 nM.
The corresponding values for `Cc1ncc2c(c1C)CN(C(=O)CC1CN(c3cccnc3)C1)C2` [Example 52, 1-(6,7-dimethyl-1,3-dihydro-2H-pyrrolo[3,4-c]pyridin-2-yl)-2-[1-(pyridin-3-yl)azetidin-3-yl]ethanone] are 84.5% and 36.1 nM.
The corresponding values for `CNc1nc(C)c(C)c2c1CN(C(=O)CC1Cc3ccccc3C1)C2` [Example 24, 2-(2,3-dihydro-1H-inden-2-yl)-1-[6,7-dimethyl-4-(methylamino)-1,3-dihydro-2H-pyrrolo[3,4-c]pyridin-2-yl]ethanone] are 98.2% and 7.27 nM.
`CNc1nc(C)c(C)c2c1CN(C(=O)C[C@@H]1C[C@H]1c1ccc(F)cc1)C2` (single isomer, unassigned) [Example 40, 1-[6,7-dimethyl-4-(methylamino)-1,3-dihydro-2H-pyrrolo[3,4-c]pyridin-2-yl]-2-[trans-2-(4-fluorophenyl)cyclopropyl]ethanone]: the “EC50 Mean Asymptote Maximum (%)” value is recorded as 121^c % and the EC50 is 6.77 nM.
`COc1nc(C)c(C)c2c1CN(C(=O)CC1CN(c3cncnc3)C1)C2` [Example 55, 1-(4-methoxy-6,7-dimethyl-1,3-dihydro-2H-pyrrolo[3,4-c]pyridin-2-yl)-2-[1-(pyrimidin-5-yl)azetidin-3-yl]ethanone]: the Emax was 96.1% and the response was half-maximal at 78.7 nM (EC50).
With `CNc1nc(C)c(C)c2c1CN(C(=O)CC1CN(c3ccnc(C(F)(F)F)c3)C1)C2C` (single isomer, unassigned) [Example 44, 2-{1-[2-(trifluoromethyl)pyridin-4-yl]azetidin-3-yl}-1-[1,6,7-trimethyl-4-(methylamino)-1,3-dihydro-2H-pyrrolo[3,4-c]pyridin-2-yl]ethanone], the “EC50 Mean Asymptote Maximum (%)” value is on record as 107^c % and the EC50 was 1.8 nM.
Regarding `Cc1nc(-c2cnn(C)c2)c2c(c1C)CN(C(=O)CC1CN(c3cccnc3)C1)C2` [Example 13, 1-[6,7-dimethyl-4-(1-methyl-1H-pyrazol-4-yl)-1,3-dihydro-2H-pyrrolo[3,4-c]pyridin-2-yl]-2-[1-(pyridin-3-yl)azetidin-3-yl]ethanone], the Emax worked out at 87.5% and the midpoint of the response, the EC50, lay at 20.6 nM.
Consider `CNc1nc(C)c(C)c2c1CN(C(=O)CC1CN(c3ccnc(C(F)(F)F)c3)C1)C2C` (single isomer, unassigned) [Example 43, 2-{1-[2-(trifluoromethyl)pyridin-4-yl]azetidin-3-yl}-1-[1,6,7-trimethyl-4-(methylamino)-1,3-dihydro-2H-pyrrolo[3,4-c]pyridin-2-yl]ethanone], for which the “EC50 Mean Asymptote Maximum (%)” value is listed as 152^c % and a half-maximal response (EC50) required 3670 nM.
On to `CNc1nc(C)c(C)c2c1CN(C(=O)C[C@H]1C[C@@H]1c1cncnc1)C2` (racemic) [Example 28, 1-[6,7-dimethyl-4-(methylamino)-1,3-dihydro-2H-pyrrolo[3,4-c]pyridin-2-yl]-2-[trans-2-(pyrimidin-5-yl)cyclopropyl]ethanone], for which the Emax worked out at 94.8% and the EC50 is < 1.7 nM.
In the case of `Cc1c2c(c(=O)n(C)c1C)CN(C(=O)C[C@@H]1C[C@H]1c1cccnc1)C2` (single isomer, unassigned) [Example 26, 5,6,7-trimethyl-2-{[trans-2-(pyridin-3-yl)cyclopropyl]acetyl}-1,2,3,5-tetrahydro-4H-pyrrolo[3,4-c]pyridin-4-one], the Emax is 90.8% and the EC50 amounted to 2140 nM.
The like results for `Cc1nc(C)c2c(c1C)CN(C(=O)CC1CN(c3cccnc3)C1)C2` [Example 12, 2-[1-(Pyridin-3-yl)azetidin-3-yl]-1-(4,6,7-trimethyl-1,3-dihydro-2H-pyrrolo[3,4-c]pyridin-2-yl)ethanone] were, in that order, 89.3% and 19.9 nM.
Turning to `CNc1nc(C)c(C)c2c1CN(C(=O)C[C@@H]1C[C@H]1c1ccc(F)nc1)C2` (single isomer, unassigned) [Example 16, 1-[6,7-dimethyl-4-(methylamino)-1,3-dihydro-2H-pyrrolo[3,4-c]pyridin-2-yl]-2-[trans-2-(6-fluoropyridin-3-yl)cyclopropyl]ethanone], the “EC50 Mean Asymptote Maximum (%)” value is recorded as 102^b % and the EC50 was determined as 0.838 nM.
With `Cc1nc(C(F)F)c2c(c1C)CN(C(=O)CC1CN(c3ccnc(C(F)F)c3)C1)C2` [Example 39, 1-[4-(difluoromethyl)-6,7-dimethyl-1,3-dihydro-2H-pyrrolo[3,4-c]pyridin-2-yl]-2-{1-[2-(difluoromethyl)pyridin-4-yl]azetidin-3-yl}ethanone], the Emax was 101% and the EC50 was 32 nM.
The like results for `CNc1nc(C)c(C)c2c1CN(C(=O)CC1CN(c3ccnc(C(F)(F)F)c3)C1)C2` [Example 34, 1-[6,7-dimethyl-4-(methylamino)-1,3-dihydro-2H-pyrrolo[3,4-c]pyridin-2-yl]-2-{1-[2-(trifluoromethyl)pyridin-4-yl]azetidin-3-yl}ethanone] were, in that order, 95.9% and 1.3 nM.
The corresponding values for `CNc1nc(C)c(C)c2c1CN(C(=O)CC1CN(c3ccnc(C(F)(F)F)c3)C1)C2C` (racemic) [Example 42, 2-{1-[2-(trifluoromethyl)pyridin-4-yl]azetidin-3-yl}-1-[1,6,7-trimethyl-4-(methylamino)-1,3-dihydro-2H-pyrrolo[3,4-c]pyridin-2-yl]ethanone] are 116% and 6.96 nM.
